Measurements from patent US20250186597A1, “TARGETED IMMUNE ACTIVATION WITH IL-18 IMMUNOCYTOKINES” (BRIGHT PEAK THERAPEUTICS AG, priority 2023, published 2025).

Assays:
NK92 cells = test: Cellular IL-18 Binding Protein resistance assay in NK92 cells (Example 13); type: cell-based, human; conditions: IL-18BP-mediated inhibition of IFNγ secretion, IL-18 analyte 1 nM
Protocol: The NK cell line NK-92 derived from a patient with lymphoma (ATCC, Cat #CR^L-2407) was cultured in αMEM medium supplemented with 20% FCS-Glutamax, 25 μM B-mercaptoethanol, and 100 IU/ml of recombinant Human Interleukin-2 (IL-2). On the day of experiment, cells were harvested and washed with αMEM medium without IL-2. After counting, cells were seeded at 100 000 cells/well in a 384 well titer plate and incubated at 37° C./5% CO2. Sixteen 2-fold serial dilutions of Fc fused human IL-18 binding protein isoform a (IL-18BPa; R&D systems, Cat #119-BP) were prepared in αMEM medium—1 ng/ml IL-12 containing 2 nM of each IL-18 variants and were added to the NK-92 cells. Final IL-18 analytes concentration was 1 nM and final IL-18BPa concentrations ranged from to 566 nM down to 17 pM.
(§1) After 16-20 h incubation at 37° C./5% CO2, 5 μl of supernatant were carefully transferred to a 384 microwells OPTIplate (Perkin Elmer; Cat #6007270) and Interferon-gamma (IFNγ) levels measured using the Human IFNγ AlphaLISA Assay Kit (Perkin Elmer, Cat #AL217C). […] AlphaLisa signal was then measured on an Enspire plate reader (Perkin Elmer) using 680 and 615 nm as excitation and emission wavelengths respectively. Half maximal inhibitory concentration (IC50) was calculated based on a variable slope, four parameter analysis using GraphPad PRISM software.

[1] = test system: PD-1positive transduced NK-92 cells; test: IL-18BP mediated inhibition of IFN gamma secretion in PD-1 positive transduced NK-92 cells (Example 18); type: cell-based, human
Protocol: (§2) To characterize the resistance of anti-PD1-IL18 immunocytokines (IC) on PD-1 positive cells, the NK-92 cell line was used to generate a PD-1 expressing cell line and furthermore, to measure the inhibition of IFN[…] release upon incubation with IL-18 variants and ICs in the presence of increasing quantities of human IL-18BP.
(§3) On the day of experiment, parental PD-1^negative and PD-1^positive transduced cells were harvested and washed with PBS 1× and resuspended in medium (w/o IL-2) containing 1 ng/ml of recombinant human Interleukin-12 (SinoBiologicals, Cat #CT011-H08H). After counting, cells were seeded at 100 000 cells/well in a 384 well culture plate and incubated at 37° C./5% CO2. When indicated, cells were preincubated with anti-PD-1 antibody LZM-009 at 17 uM during 30 min at 37° C. […]
as §1, with “microwell OptiIPlate” for “microwells OPTIplate”, “AlphaLISA” for “AlphaLisa”

[2] = test system: parental PD-1negative NK-92 cells; test: IL-18BP mediated inhibition of IFN gamma secretion in parental PD-1 negative NK-92 cells (Example 18); type: cell-based, human; conditions: IL-18BP-mediated inhibition of IFNγ secretion, IL-18 analyte 1 nM
Protocol: as §2, §3
as §1, with “microwell OptiIPlate” for “microwells OPTIplate”, “AlphaLISA” for “AlphaLisa”

[3] = molecular target: T1, human IL-18 Binding Protein (IL-18BP) (Homo sapiens, UniProt O95998); test: IL-18 Binding Protein alphaLISA assay (Example 12); conditions: human IL-18BP
T1 sequence (O95998 31-194): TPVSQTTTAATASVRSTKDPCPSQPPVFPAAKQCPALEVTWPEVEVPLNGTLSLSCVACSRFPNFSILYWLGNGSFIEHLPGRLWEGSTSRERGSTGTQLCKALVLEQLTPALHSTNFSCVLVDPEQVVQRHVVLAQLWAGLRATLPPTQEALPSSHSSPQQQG
Protocol: Wild type or modified IL-18 polypeptides samples were diluted at 5.6 μM in a solution of 1× alphaLISA Immunoassay Buffer provided in the alphaLISA IFNγ Detection kit and were diluted applying 3-fold serial dilutions down to […] in 384 deep well plates. A solution of 10 ng/ml of human IL-18BP-His was prepared with 1×alphaLISA Immunoassay Buffer. IL-18/IL-18BP complex formation was performed incubating 30 μl of IL-18BP solution to IL-18 sample titrations for 1 h at 20° C. IL-18BP standard was prediluted from stock solution supplied in alphaLISA IFNγ Detection kit at 100 ng/ml with 1×alphaLISA Buffer and titration prepared from applying 2-fold serial dilutions. The following solutions were prepared: a 50 μg/ml solution of anti-IL-18BP alphaLISA Acceptor beads, a 5 nM solution of biotinylated anti-IL18BP antibody and a 80 μg/ml light-protected solution of Streptavidin Donor beads in 1×alphaLISA Immunoassay Buffer. […]
5 μl of Biotinylated anti-IL-18BP antibody were added, followed by a short centrifugation step at 150 g, and incubated for 60 minutes at 20° C. under shaking at 750 rpm. […] AlphaLisa signal was then measured on an Enspire plate reader (Perkin Elmer) using 680 and 615 nm as excitation and emission wavelengths respectively. […]

IC50 (NK92 cells): 0.781 nM
IC50 ([1]; IL-18BP-mediated inhibition of IFNγ secretion, IL-18 analyte 1 nM): 2.67 nM
PD-1^pos/PD-1^neg IC50 ratio ([1]; NK-92 cells): 1.2
Kd [3]: 0.411 nM
Substance: SEQ ID NO: 1: Native sequence of human IL-18 (bioactive form) [reference compound]
IC50 [2]: 2.97 nM
